{"source": "patent EP3620052A1", "about": "“USE OF PHENOXYPYRIDINYL-SUBSTITUTED (1H-1,2,4-TRIAZOL-1-YL)ALCOHOLS FOR CONTROLLING FUNGICIDAL DISEASES IN MAIZE” (Bayer Aktiengesellschaft, priority 2018, dated 2020)", "type_in_all_cases": "in vivo", "key": {"Kabatiella zeae": {"test_system": "Kabatiella zeae", "experiment": "Field trials in North American maize: disease control (Abbott efficacy) after foliar spray", "conditions": "one foliar application, 1 trial, untreated control 17 % disease severity", "experimental": "(§1) In 2018 eight field trials in maize were conducted in order to study the effect of compounds of formula (I) and standard azole-type fungicides regarding disease control against leaf diseases.\n(§2) The trials were done under practical field conditions in Canada and the USA with the commercially available maize varieties DKC 62-08 Dekalb®, DKC 35-88 RIB RR2 BT Dekalb®, P7958 AM RR2 LL BT (Marc Hutlet Seeds Ltd.), NK1120-3122 RR+GLU+ECB+CRW (Syngenta), P9608AM LL RR2 CRW ECB (Pioneer) and Golden Bantam (conventional variety available from various companies worldwide).\n(§3) These trials were conducted in the following provinces in Canada and federal states in North America: Ontario (Canada) and Georgia, Indiana, Iowa, Michigan, Ohio (all USA).\n(§4) The tested compounds / reference products, their respective formulation type and rates of application [g a.i./ha] Tab.3: Products, formulations and rates.\n(§5) In table 4 details of the formulations of (1-02) used in the different trials are listed. Tab.4: Formulations of (1-02) and a tank mixed surfactant used in different trials.\n(§6) The products were sprayed with one foliar application at growth stage BBCH EC 63 - 65 with a high clearance sprayer or a backpack applicator.\n(§7) The water quantity for the applications varied from 150 to 300 l/ha.\n(§8) About 23 - 35 days after application the disease control was assessed visually by rating the damaged leaves or plant parts.\n(§9) The efficacy against the pathogens listed in table 5 was calculated according to Abbott's formula: Efficacy (%) = (X−Y)/X × 100, [formula] wherein X is the disease severity in the control and Y is the disease severity in the treatment, and is shown in table 5 [%]."}, "Setosphaeria turcica": {"test_system": "Setosphaeria turcica", "experiment": "Field trials in North American maize: disease control (Abbott efficacy) after foliar spray", "conditions": "one foliar application, 2 trials, untreated control 18 % disease severity", "experimental": "as §1, §2, §3, §4, §5, §6, §7, §8, §9"}, "[1]": {"test_system": "Cochliobolus heterostrophus", "experiment": "Field trials in North American maize: disease control (Abbott efficacy) after foliar spray", "conditions": "one foliar application, 1 trial, untreated control 12 % disease severity", "experimental": "as §1, §2, §3, §4, §5, §6, §7, §8, §9"}, "Phaeosphaeria maydis": {"test_system": "Phaeosphaeria maydis", "experiment": "Field trials in Brazilian maize: disease control (Abbott efficacy) after foliar spray", "conditions": "125 g a.i./ha, two foliar applications, Brazil, 3 trials; untreated control 44 % disease severity", "experimental": "(§10) In 2017/2018 five field trials in maize were conducted in order to study the effect of compounds of formula (I) and standard azole-type fungicides regarding disease control against leaf diseases and crop safety.\n(§11) The trials were done under practical field conditions in Brazil in the Safrinha season with the commercially available maize varieties P30F53 Pioneer, P30F53 RR - Roundup Ready® Pioneer, P30F53YHV Pioneer, DKB 390 Dekalb® and DKB 390 IPRO3 Dekalb®.\n(§12) These trials were conducted in the following federal states in Brazil: Goias, Mato Grosso, Minas Gerais, Parana and Sao Paulo.\n(§13) The tested compounds / reference products, their respective formulation type and rates of application [g a.i./ha] Tab.1: Products, formulations and rates.\n(§14) The products were sprayed twice in sequential, foliar applications at growth stages BBCH EC 39 - 55 and BBCH EC 51 - 69 with a spray interval of about 2 weeks with backpack or bicycle applicators.\n(§15) The water quantity for the applications was 150 l / ha.\n(§16) About 14 - 28 days after the second application crop response and disease control were assessed visually by rating the damaged leaves or plant parts.\n(§17) The efficacy against the pathogens listed in table 2 was calculated according to Abbott's formula: Efficacy (%) = (X−Y)/X × 100, [formula] wherein X is the disease severity in the control and Y is the disease severity in the treatment, and is shown in table 2 [%]."}, "Puccinia polysora": {"test_system": "Puccinia polysora", "experiment": "Field trials in Brazilian maize: disease control (Abbott efficacy) after foliar spray", "conditions": "125 g a.i./ha, two foliar applications, Brazil, 1 trial; untreated control 73 % disease severity", "experimental": "as §10, §11, §12, §13, §14, §15, §16, §17"}, "Puccinia sorghi": {"test_system": "Puccinia sorghi", "experiment": "Field trials in Brazilian maize: disease control (Abbott efficacy) after foliar spray", "conditions": "125 g a.i./ha, two foliar applications, Brazil, 2 trials; untreated control 20 % disease severity", "experimental": "as §10, §11, §12, §13, §14, §15, §16, §17"}, "Cercospora zeae maydis": {"test_system": "Cercospora zeae maydis", "experiment": "Field trials in Brazilian maize: disease control (Abbott efficacy) after foliar spray", "conditions": "125 g a.i./ha, two foliar applications, Brazil, 2 trials; untreated control 40 % disease severity", "experimental": "as §10, §11, §12, §13, §14, §15, §16, §17"}, "Helminthosporium spp.": {"test_system": "Helminthosporium spp.", "experiment": "Field trials in Brazilian maize: disease control (Abbott efficacy) after foliar spray", "conditions": "125 g a.i./ha, two foliar applications, Brazil, 3 trials; untreated control 22 % disease severity", "experimental": "as §10, §11, §12, §13, §14, §15, §16, §17"}, "maize [2]": {"test_system": "maize", "experiment": "Field trials in North American maize: crop response (phytotoxicity) after foliar spray", "conditions": "for PTX (%): one foliar application BBCH EC 63 - 65, Canada/USA, 3 trials"}, "maize [3]": {"test_system": "maize", "experiment": "Field trials in Brazilian maize: yield relative to untreated control", "conditions": "125 g a.i./ha, two foliar applications, Brazil, 3 trials; untreated control (43 dt/ha) = 100%", "experimental": "as §10, §11, §12, §13, §14, §15\nThe yield of the untreated control (43 dt/ha) is set to 100% and the yield values for the other treatments are given in percent thereof. Tab. 2: Impact of foliar applications of tested compounds on crop response, disease control and yield."}, "maize [4]": {"test_system": "maize", "experiment": "Field trials in Brazilian maize: crop response (phytotoxicity) after foliar spray", "conditions": "125 g a.i./ha, two foliar applications, Brazil field trials, assessed 14 - 28 days after second application, 5 trials", "experimental": "as §10, §11, §12, §13, §14, §15, §16"}, "maize [5]": {"test_system": "maize", "experiment": "Field trials in North American maize: yield relative to untreated control", "conditions": "for Yield (% of Control): one foliar application, 2 trials, untreated control (112 dt/ha) = 100%", "experimental": "as §1, §2, §3, §4, §5, §6, §7\nThe yield of the untreated control (112 dt/ha) is set to 100% and the yield values for the other treatments are given in percent thereof Tab. 5: Impact of foliar applications of tested compounds on disease control."}, "[6]": {"conditions": "Canada/USA field trials, 60 -125 g a.i./ha"}}}
{"smiles": "CC(O)(Cn1cncn1)c1ccc(Oc2ccc(Br)cc2)nc1C(F)(F)F", "note": "(centres unmarked) [(I-02), 2-[6-(4-bromophenoxy)-2-(trifluoromethyl)-3-pyridyl]-1-(1,2,4-triazol-1-yl)propan-2-ol]", "values": [{"measurement": "Kabatiella zeae (% efficacy)", "setting": "Kabatiella zeae; 60 g a.i./ha", "value": 89, "unit": "%"}, {"measurement": "Kabatiella zeae (% efficacy)", "setting": "Kabatiella zeae; 125 g a.i./ha", "value": 95, "unit": "%"}, {"measurement": "Setosphaeria turcica (% efficacy)", "setting": "Setosphaeria turcica; 60 g a.i./ha", "value": 57, "unit": "%"}, {"measurement": "Setosphaeria turcica (% efficacy)", "setting": "Setosphaeria turcica; 125 g a.i./ha", "value": 61, "unit": "%"}, {"measurement": "Cochliobolus heterostrophus (% efficacy)", "setting": "[1]; 60 g a.i./ha", "value": 91, "unit": "%"}, {"measurement": "Cochliobolus heterostrophus (% efficacy)", "setting": "[1]; 125 g a.i./ha", "value": 97, "unit": "%"}, {"measurement": "Phaeosphaeria maydis (% efficacy)", "setting": "Phaeosphaeria maydis", "value": 64, "unit": "%"}, {"measurement": "Puccinia polysora (% efficacy)", "setting": "Puccinia polysora", "value": 74, "unit": "%"}, {"measurement": "Puccinia sorghi (% efficacy)", "setting": "Puccinia sorghi", "value": 68, "unit": "%"}, {"measurement": "Cercospora zeae maydis (% efficacy)", "setting": "Cercospora zeae maydis", "value": 70, "unit": "%"}, {"measurement": "Helminthosporium spp. (% efficacy)", "setting": "Helminthosporium spp.", "value": 63, "unit": "%"}, {"measurement": "PTX (%)", "setting": "maize [2]; 60 g a.i./ha (100 EC or 250 SC)", "value": 0, "unit": "%"}, {"measurement": "PTX (%)", "setting": "maize [2]; 125 g a.i./ha (100 EC or 250 SC)", "value": 0, "unit": "%"}, {"measurement": "crop safety (conclusion in words)", "setting": "maize [2]; [6]", "value": "completely safe on the crop"}, {"measurement": "Yield (% of Control)", "setting": "maize [3]", "value": "112 % of Control"}, {"measurement": "PTX (%)", "setting": "maize [4]", "value": 0, "unit": "%"}, {"measurement": "Yield (% of Control)", "setting": "maize [5]; 60 g a.i./ha", "value": "120 % of Control"}, {"measurement": "Yield (% of Control)", "setting": "maize [5]; 125 g a.i./ha", "value": "115 % of Control"}, {"measurement": "impact on yield (conclusion in words)", "setting": "maize [5]; [6]", "value": "positive impact on yield"}]}
{"smiles": "CC(O)(Cn1cncn1)c1ccc(Oc2ccc(Cl)cc2)nc1C(F)(F)F", "note": "(centres unmarked) [(I-01), 2-[6-(4-chlorophenoxy)-2-(trifluoromethyl)-3-pyridyl]-1-(1,2,4-triazol-1-yl)propan-2-ol]", "values": [{"measurement": "Phaeosphaeria maydis (% efficacy)", "setting": "Phaeosphaeria maydis", "value": 68, "unit": "%"}, {"measurement": "Puccinia polysora (% efficacy)", "setting": "Puccinia polysora", "value": 76, "unit": "%"}, {"measurement": "Puccinia sorghi (% efficacy)", "setting": "Puccinia sorghi", "value": 71, "unit": "%"}, {"measurement": "Cercospora zeae maydis (% efficacy)", "setting": "Cercospora zeae maydis", "value": 61, "unit": "%"}, {"measurement": "Helminthosporium spp. (% efficacy)", "setting": "Helminthosporium spp.", "value": 65, "unit": "%"}, {"measurement": "Yield (% of Control)", "setting": "maize [3]", "value": "123 % of Control"}, {"measurement": "PTX (%)", "setting": "maize [4]", "value": 0, "unit": "%"}]}
